# Laboratory results from PubChem BioAssay AID1918953 (Molecular Pharmacology Branch, DTP, NCI, 2023).
# pIC50: −log10 of the molar value.
# System: MDA-MB-231 complex spheroid viability
# Test: Anticancer human tumor MDA-MB-231/ATCC cell line growth inhibition;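 note: drug exposure lasted 7 days starting on day 3 of spheroid growth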
# Conditions: for pIC50: curve of first compound; for viability, T/C: stronger effect = lower value
# Method in brief: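 Multicellular complex spheroids of tumor cells with human endothelial cells (HUVEC) and mesenchymal stem cells; the LSD1 inhibitor iadademstat was combined with standard-of-care or investigational agents. Top concentration at or near clinical Cmax, half-log dilutions; final DMSO ≤0.25%.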
# [1] = second compound 0.1 µM, first compound 0.0316 µM
# [2] = second compound 0.1 µM, first compound 0.1 µM
# [3] = second compound 0.1 µM, first compound 0.316 µM
# [4] = second compound 0.1 µM, first compound 1 µM
# [5] = second compound 0.316 µM, first compound 0.0316 µM
# [6] = second compound 0.316 µM, first compound 0.1 µM
# [7] = second compound 0.316 µM, first compound 0.316 µM
# [8] = second compound 0.316 µM, first compound 1 µM
# [9] = second compound 1 µM, first compound 0.0316 µM
# [10] = second compound 1 µM, first compound 0.1 µM
# [11] = second compound 1 µM, first compound 0.316 µM
# [12] = second compound 1 µM, first compound 1 µM
# [13] = second compound 3.16 µM, first compound 0.0316 µM
# [14] = second compound 3.16 µM, first compound 0.1 µM
# [15] = second compound 3.16 µM, first compound 0.316 µM
# [16] = second compound 3.16 µM, first compound 1 µM
# [17] = second compound 10 µM, first compound 0.0316 µM
# [18] = second compound 10 µM, first compound 0.1 µM
# [19] = second compound 10 µM, first compound 0.316 µM
# [20] = second compound 10 µM, first compound 1 µM
structure (smiles),measurement,setting,value
O=C(C=Cc1cccc(S(=O)(=O)Nc2ccccc2)c1)NO + NC1CC1c1ccc(-c2cccc(O)c2)cc1,pIC50,second compound 0.1 µM,7.69
same,pIC50,second compound 0.316 µM,7.88
same,pIC50,second compound 1 µM,7.94
same,pIC50,second compound 3.16 µM,> 8.02
same,pIC50,second compound 10 µM,> 8.02
same,"viability, T/C","second compound 0.1 µM, first compound 0.00949 µM",61.6%
same,"viability, T/C","second compound 0.1 µM, first compound 0.03 µM",44%
same,"viability, T/C","second compound 0.1 µM, first compound 0.0949 µM",31.3%
same,"viability, T/C","second compound 0.1 µM, first compound 0.3 µM",19.1%
same,"viability, T/C","second compound 0.1 µM, first compound 0.949 µM",1.09%
same,"viability, T/C","second compound 0.1 µM, first compound 3 µM",74.2%
same,"viability, T/C","second compound 0.316 µM, first compound 0.00949 µM",55.9%
same,"viability, T/C","second compound 0.316 µM, first compound 0.03 µM",35.5%
same,"viability, T/C","second compound 0.316 µM, first compound 0.0949 µM",24.9%
same,"viability, T/C","second compound 0.316 µM, first compound 0.3 µM",17.7%
same,"viability, T/C","second compound 0.316 µM, first compound 0.949 µM",0.33%
same,"viability, T/C","second compound 0.316 µM, first compound 3 µM",56.4%
same,"viability, T/C","second compound 1 µM, first compound 0.00949 µM",52.5%
same,"viability, T/C","second compound 1 µM, first compound 0.03 µM",37.2%
same,"viability, T/C","second compound 1 µM, first compound 0.0949 µM",20.9%
same,"viability, T/C","second compound 1 µM, first compound 0.3 µM",19.7%
same,"viability, T/C","second compound 1 µM, first compound 0.949 µM",0.58%
same,"viability, T/C","second compound 1 µM, first compound 3 µM",56.9%
same,"viability, T/C","second compound 3.16 µM, first compound 0.00949 µM",47.9%
same,"viability, T/C","second compound 3.16 µM, first compound 0.03 µM",31.1%
same,"viability, T/C","second compound 3.16 µM, first compound 0.0949 µM",18.4%
same,"viability, T/C","second compound 3.16 µM, first compound 0.3 µM",15.8%
same,"viability, T/C","second compound 3.16 µM, first compound 0.949 µM",0.63%
same,"viability, T/C","second compound 3.16 µM, first compound 3 µM",58.4%
same,"viability, T/C","second compound 10 µM, first compound 0.00949 µM",31.4%
same,"viability, T/C","second compound 10 µM, first compound 0.03 µM",18.4%
same,"viability, T/C","second compound 10 µM, first compound 0.0949 µM",12.8%
same,"viability, T/C","second compound 10 µM, first compound 0.3 µM",5.16%
same,"viability, T/C","second compound 10 µM, first compound 0.949 µM",0.34%
same,"viability, T/C","second compound 10 µM, first compound 3 µM",37.3%
O=C(C=Cn1cnc(-c2cc(C(F)(F)F)cc(C(F)(F)F)c2)n1)NNc1cnccn1 + NC1CC1c1ccc(-c2cccc(O)c2)cc1,pIC50,second compound 0.1 µM,> 8.50
same,pIC50,second compound 0.316 µM,> 8.50
same,pIC50,second compound 1 µM,> 8.50
same,pIC50,second compound 3.16 µM,> 8.50
same,pIC50,second compound 10 µM,> 8.50
same,"viability, T/C","second compound 0.1 µM, first compound 0.00316 µM",27.7%
same,"viability, T/C","second compound 0.1 µM, first compound 0.01 µM",27.4%
same,"viability, T/C",[1],13.1%
same,"viability, T/C",[2],5.67%
same,"viability, T/C",[3],4.44%
same,"viability, T/C",[4],5.61%
same,"viability, T/C","second compound 0.316 µM, first compound 0.00316 µM",28.6%
same,"viability, T/C","second compound 0.316 µM, first compound 0.01 µM",27.3%
same,"viability, T/C",[5],13.2%
same,"viability, T/C",[6],5.36%
same,"viability, T/C",[7],5.11%
same,"viability, T/C",[8],5.35%
same,"viability, T/C","second compound 1 µM, first compound 0.00316 µM",25.6%
same,"viability, T/C","second compound 1 µM, first compound 0.01 µM",25.4%
same,"viability, T/C",[9],14.6%
same,"viability, T/C",[10],4.77%
same,"viability, T/C",[11],4.77%
same,"viability, T/C",[12],4.71%
same,"viability, T/C","second compound 3.16 µM, first compound 0.00316 µM",27%
same,"viability, T/C","second compound 3.16 µM, first compound 0.01 µM",25%
same,"viability, T/C",[13],13.6%
same,"viability, T/C",[14],5.37%
same,"viability, T/C",[15],6.01%
same,"viability, T/C",[16],4.79%
same,"viability, T/C","second compound 10 µM, first compound 0.00316 µM",22.5%
same,"viability, T/C","second compound 10 µM, first compound 0.01 µM",17.5%
same,"viability, T/C",[17],14.9%
same,"viability, T/C",[18],5.78%
same,"viability, T/C",[19],6.15%
same,"viability, T/C",[20],7.13%
COc1ccc([C@@H](O)c2cc(-c3ncnc4cc(N5CCOCC5)ccc34)c(F)cc2Cl)nn1 + NC1CC1c1ccc(-c2cccc(O)c2)cc1,pIC50,second compound 0.1 µM,6.44
same,pIC50,second compound 0.316 µM,6.76
same,pIC50,second compound 1 µM,7.08
same,pIC50,second compound 3.16 µM,6.79
same,pIC50,second compound 10 µM,> 7.50
same,"viability, T/C",[1],74.9%
same,"viability, T/C",[2],65.6%
same,"viability, T/C",[3],53%
same,"viability, T/C",[4],33.1%
same,"viability, T/C","second compound 0.1 µM, first compound 3.16 µM",17.1%
same,"viability, T/C","second compound 0.1 µM, first compound 10 µM",12.8%
same,"viability, T/C",[5],57.1%
same,"viability, T/C",[6],58.5%
same,"viability, T/C",[7],42.3%
same,"viability, T/C",[8],28.9%
same,"viability, T/C","second compound 0.316 µM, first compound 3.16 µM",18%
same,"viability, T/C","second compound 0.316 µM, first compound 10 µM",13.1%
same,"viability, T/C",[9],59.3%
same,"viability, T/C",[10],48.3%
same,"viability, T/C",[11],36%
same,"viability, T/C",[12],27.4%
same,"viability, T/C","second compound 1 µM, first compound 3.16 µM",16.2%
same,"viability, T/C","second compound 1 µM, first compound 10 µM",11%
same,"viability, T/C",[13],58.5%
same,"viability, T/C",[14],54.2%
same,"viability, T/C",[15],43.7%
same,"viability, T/C",[16],29.1%
same,"viability, T/C","second compound 3.16 µM, first compound 3.16 µM",14.8%
same,"viability, T/C","second compound 3.16 µM, first compound 10 µM",11.6%
same,"viability, T/C",[17],44.8%
same,"viability, T/C",[18],43.7%
same,"viability, T/C",[19],31.6%
same,"viability, T/C",[20],20.2%
same,"viability, T/C","second compound 10 µM, first compound 3.16 µM",13.5%
same,"viability, T/C","second compound 10 µM, first compound 10 µM",10.2%
